How the values were obtained:
[1] = test system: DNA; settings: ref Zhou et al. [2007a]; Kobets et al. [2016]; Phillips et al. [1984]; Randerath et al. [1984]; cited from earlier work
[2] = Oxidation of 1′-hydroxymyristicin to 1′-oxomyristicin, rat liver microsomes; assay type: in vitro ADME
Procedure: (§1) The kinetic constants for the enzymatic conversion of 1′-hydroxymyristicin to 1′-oxomyristicin were determined using incubation mixtures containing (final concentrations) 3 mM NAD^+, 2 mM GSH, and 1 mg/ml rat or human liver microsomes in 0.2 M Tris–HCl (pH 7.4). GSH was added to the incubation mixtures to trap the reactive 1′-oxo metabolite formed after oxidation of 1′-hydroxymyristicin. The level of GSH in the incubations was optimized in a previous study to obtain maximum scavenging of 1′-oxoestragole (Punt et al. [2009]). To this end, incubations were performed in the presence of increasing concentrations of GSH, ranging from 2 to 10 mM. […] Kinetic constants for this reaction in rat and human liver were derived by performing incubations with NAD^+ as a cofactor, given that in rat and human liver, NAD^+ is mainly present in an oxidized form with levels of NAD^+ being much higher than those of NADH. In a previous study, it was shown that the highest level of 1′-hydroxy alkenylbenzene oxidation occurs in incubations with microsomes in the presence of NAD^+ as cofactor. […] The enzyme responsible for the oxidation may be 17β-hydroxysteroid dehydrogenase type 2 (17β-HSD2) (Punt et al. [2010]). Prior to the addition of 1′-hydroxymyristicin at final concentrations ranging between 10 and 4000 μM to the incubation mixture from 100 times concentrated stock solutions in DMSO, samples were pre-incubated for 1 min at 37 °C. Reactions were terminated after 10 min of incubation at 37 °C by adding 25 μl (0.25 times the incubation volume) of ice-cold ACN. The formation of the GSH conjugate of 1′-oxomyristicin (GS-1′-oxomyristicin) was linear with time and microsomal protein concentration under the experimental conditions used. Blank incubations were performed without the cofactor NAD^+. Incubations were performed in triplicate. All samples were centrifuged for 5 min at 13,000×g, and the supernatant was stored at −20 °C until UPLC analysis.
(§2) Quantification of GS-1′-oxomyristicin was based on a calibration curve of the GSH adduct of the synthesized 1′-oxymyristicin made as previously described (van den Berg et al. [2012]; Punt et al. [2009]; Martati et al. [2011]; Al-Subeihi et al. [2011]). In short, a 60 μM concentration of the synthetic standard of 1′-oxomyristicin, dissolved in ACN, was incubated with different concentrations of GSH (i.e., 0–20 μM) in 0.2 M Tris–HCl (pH 7.4) for 6 h at 37 °C, resulting in full conversion of the GSH to GS-1′-oxymyristicin. Quantification was done by comparing the peak areas of the formed GS-1′-oxo metabolite in the incubation mixtures with peak areas of the GS-1′-oxymyristicin calibration curve thus obtained at a wavelength of 212 nm. The gradient for analysis of the metabolite consisted of a mixture of ACN and ultrapure water containing 0.1 % (v/v) TFA. The flow rate was 0.6 ml/min, The gradient started with 10 % ACN, increased to 30 % ACN over 2.5 min, after which ACN was increased to 80 % over 0.5 min, kept at 80 % for 0.5 min, followed by a decrease to 10 % over 0.5 min, and finally kept at 10 % for 0.5 min.

[3] = Oxidation of 1′-hydroxymyristicin to 1′-oxomyristicin, human liver microsomes; assay type: in vitro ADME
Procedure: as §1, §2

[4] = Microsomal conversion of myristicin, male rat liver microsomes; assay type: in vitro ADME; settings: for Vmax / In vitro catalytic efficiency: formation of the metabolite from myristicin; for Vmax: NADPH, mean of three ± SD; for In vitro catalytic efficiency: Vmax/Km × 1000; for Scaled Vmax, in vivo / In vivo catalytic efficiency: from myristicin; for Scaled Vmax, in vivo: microsomal protein yield 35 mg/g liver; for In vivo catalytic efficiency: scaled Vmax/Km
Procedure: (§3) First, it was determined which organs are involved in the biotransformation of myristicin in rat and human. For this purpose, liver, kidney, lung, and small intestine microsomes from male Sprague–Dawley rat and pooled gender human were used. Incubations were performed by adding myristicin to incubation mixtures containing 1 mg/mL of the microsomal protein preparations and 3 mM NADPH in 0.2 M Tris–HCl (pH 7.4). After 1 min of pre-incubation at 37 °C, myristicin (final concentration, 1000 μM) was added from a 100 times concentrated stock solution in DMSO so that the final DMSO content was 1 % (v/v). Incubations were carried out for 30 min after which the reactions were terminated by adding 25 µl (0.25 times the incubation volume) of ice-cold ACN. Samples were centrifuged for 5 min at 13,000×g, and the supernatant was stored at −20 °C until UPLC analysis. As metabolism of myristicin was observed only in incubations with liver microsomes for male rats and pooled gender human, the determination of kinetic constants for the formation of microsomal metabolites was performed only for the liver fractions. Incubations to determine kinetic constants were performed following the conditions described above using final concentrations of myristicin from 25 to 1000 μM for rat and human liver. In all incubations, the final concentration of DMSO, in which myristicin was dissolved, was kept at 1 % (v/v). The formation of different microsomal metabolites was linear with time and microsomal protein concentration under the conditions described. Blank incubations were performed in the absence of the cofactor NADPH. All incubations were performed in triplicate.
(§4) Secondary metabolism of the relevant 1′-hydroxy metabolite of myristicin was taken into account by determining the kinetic constants for its conversion in (a) glucuronidation, (b) sulfation, and (c) oxidation, again under conditions that allowed adequate definition of kinetic constants and with <10 % substrate conversion. Incubation samples were subjected to UPLC analysis that was performed as described previously (Punt et al. [2008]). Identification was achieved by comparing the UV spectra of the formed metabolites to the spectra of the synthesized 1′-hydroxymyristicin and 1′-oxomyristicin reference standards. Quantification of all formed metabolites was done by comparing the peak areas to those of calibration curves of the corresponding reference compounds, determined using UPLC with photodiode array detection (UPLC-PDA). The UPLC system was composed of a Waters (Waters, Milford, MA) Acquity solvent manager, sample manager, and photodiode array detector, equipped with Water Acquity UPLC BEH C18 column.
(§5) The gradient for analysis of microsomal metabolites was performed with 100 % ACN and ultrapure water containing 0.1 % (v/v) TFA. The flow rate was 0.6 ml/min. The gradient started at 10 % ACN, increased to 50 % ACN over 4 min, increased to 80 % over 0.5 min, followed by decrease to 10 % ACN over 0.5 min, and finally kept at 10 % for 1 min.

[5] = Microsomal conversion of myristicin, human liver microsomes; assay type: in vitro ADME; settings: for Vmax / In vitro catalytic efficiency: formation of the metabolite from myristicin; for Vmax: NADPH, mean of three ± SD; for In vitro catalytic efficiency: Vmax/Km × 1000; for Scaled Vmax, in vivo / In vivo catalytic efficiency: from myristicin; for Scaled Vmax, in vivo: microsomal protein yield 32 mg/g liver; for In vivo catalytic efficiency: scaled Vmax/Km
Procedure: as §3, §4, §5

[6] = test system: freshly isolated rat hepatocytes in primary culture; settings: 10^−6 to 10^−3 M; ref Howes et al. [1990]; cited from earlier work
[7] = Glucuronidation of 1′-hydroxymyristicin, male rat liver S9; assay type: in vitro ADME
Procedure: (§6) The kinetic constants for the metabolic conversion of 1′-hydroxymyristicin to 1′-hydroxymyristicin glucuronide (HMG) by both male rat and human liver fractions were determined as described previously for the related 1′-hydroxyalkenylbenzenes (Punt et al. [2008]; van den Berg et al. [2012]; Punt et al. [2009]; Martati et al. [2011], [2012]; Al-Subeihi et al. [2011], [2012]). Briefly, incubations contained (final concentrations) 10 mM of UDPGA and 0.5 mg/ml of male Sprague–Dawley or pooled gender human S9 protein in 0.2 M Tris–HCl (pH 7.4) containing 10 mM of MgCl2. To overcome enzyme latency and to obtain maximal glucuronidation activity, incubations containing S9 were pretreated on ice with 0.025 mg/ml alamethicin added from a 200 times concentrated stock dissolved in methanol (Fisher et al. [2000]; Lin and Wong [2002]). After 15 min of alamethicin treatment, samples were pre-incubated at 37 °C for 1 min, and reactions were subsequently started by adding 1′-hydroxymyristicin at final concentrations of 10 to 1200 μM. 1′-Hydroxymyristicin was added from 100 times concentrated stock solutions in DMSO. The reaction mixtures were incubated for 30 and 180 min for rat and human, respectively, and terminated by adding 25 µl (0.25 times the incubation volume) of ice-cold ACN. Blank incubations were carried out in the absence of the cofactor UDPGA. Experiments were performed in triplicate. The longer incubation time in human samples was required due to the lower rate of glucuronidation. The formation of 1′-hydroxymyristicin glucuronide was linear with time and the S9 protein concentration under the experimental conditions described. All samples were centrifuged for 5 min at 16,000×g, and the supernatant was stored at −20 °C until ultra-performance liquid chromatography (UPLC) analysis.
(§7) 1′-Hydroxymyristicin glucuronide was estimated based on the comparison of the peak area of the formed metabolite to the calibration curve of 1′-hydroxymyristicin at a wavelength of 210 nm. The flow rate was 0.6 ml/min. The gradient was made using a mixture of ACN and ultrapure water containing 0.1 % (v/v) TFA.

[8] = Glucuronidation of 1′-hydroxymyristicin, human liver S9; assay type: in vitro ADME
Procedure: as §6, §7

[9] = 1′-hydroxymyristicin to 1′-oxomyristicin, Vmax/Km
[10] = 1′-hydroxymyristicin to 1′-oxomyristicin, microsomes, NAD+, GSH trapping
[11] = oxidation of 1′-hydroxymyristicin, scaled Vmax/Km
[12] = 1′-hydroxymyristicin to its glucuronide, S9, UDPGA
[13] = 1′-hydroxymyristicin to its glucuronide, Vmax/Km
[14] = glucuronidation of 1′-hydroxymyristicin, S9 protein yield 143 mg/g liver
[15] = glucuronidation of 1′-hydroxymyristicin, scaled Vmax/Km

For `C=CCc1ccc(OC)cc1` [estragole], the “DNA adduct formation, result” value [1] is given as “positive results”.
With `C=CC(=O)c1cc(OC)c2c(c1)OCO2` [1′-Oxomyristicin, 1′-oxomyristicin] the “In vitro catalytic efficiency” value [2, 9] was 7.369 μl min^−1 (mg microsomal or S9 protein)^−1, the Vmax [2, 10] was 43.64 ± 20.9 nmol min^−1 (mg microsomal or S9 protein)^−1 and the “Scaled Vmax, in vivo” value ([2]; oxidation of 1′-hydroxymyristicin, microsomal protein yield 35 mg/g liver) was 91.644 μmol/h/g tissue. For the same compound, the “In vivo catalytic efficiency” value [2, 11] was 0.0155 ml/h/g tissue, the “In vitro catalytic efficiency” value [3, 9] was 9.864 μl min^−1 (mg microsomal or S9 protein)^−1 and the Vmax [3, 10] was 32 ± 14 nmol min^−1 (mg microsomal or S9 protein)^−1. For the same compound, the “Scaled Vmax, in vivo” value ([3]; oxidation of 1′-hydroxymyristicin, microsomal protein yield 32 mg/g liver) was 61.44 μmol/h/g tissue and the “In vivo catalytic efficiency” value [3, 11] was 0.0189 ml/h/g tissue.
For `COc1cc(/C=C/CO)cc2c1OCO2` [3′-Hydroxymyristicin, 3′-hydroxymyristicin], the Vmax [4] was 0.47 ± 0.09 nmol min^−1 (mg microsomal or S9 protein)^−1, the “In vitro catalytic efficiency” value [4] was 5.663 μl min^−1 (mg microsomal or S9 protein)^−1 and the “Scaled Vmax, in vivo” value [4] was 0.987 μmol/h/g tissue. For the same compound, the “In vivo catalytic efficiency” value [4] was 0.0119 ml/h/g tissue, the Vmax [5] was 0.29 ± 0.14 nmol min^−1 (mg microsomal or S9 protein)^−1 and the “In vitro catalytic efficiency” value [5] was 0.178 μl min^−1 (mg microsomal or S9 protein)^−1. The “Scaled Vmax, in vivo” value [5] was 0.557 μmol/h/g tissue and the “In vivo catalytic efficiency” value [5] was 0.0003 ml/h/g tissue.
With `COc1cc(CC(O)CO)cc2c1OCO2` (stereo not shown) [2′,3′-Dihydroxymyristicin] the Vmax [4] was 0.44 ± 0.08 nmol min^−1 (mg microsomal or S9 protein)^−1, the “In vitro catalytic efficiency” value [4] was 27.5 μl min^−1 (mg microsomal or S9 protein)^−1 and the “Scaled Vmax, in vivo” value [4] was 0.924 μmol/h/g tissue. The “In vivo catalytic efficiency” value [4] was 0.0578 ml/h/g tissue, the Vmax [5] was 0.08 ± 0.01 nmol min^−1 (mg microsomal or S9 protein)^−1 and the “In vitro catalytic efficiency” value [5] was 2.424 μl min^−1 (mg microsomal or S9 protein)^−1. For the same compound, the “Scaled Vmax, in vivo” value [5] was 0.154 μmol/h/g tissue and the “In vivo catalytic efficiency” value [5] was 0.0047 ml/h/g tissue.
In the case of `C=CCc1ccc(OC)c(OC)c1` [methyleugenol], the “unscheduled DNA synthesis (UDS)” value [6] is given as “induced unscheduled DNA synthesis (UDS)” and the “DNA adduct formation, result” value [1] is given as “positive results”.
With `C=CC(OC1OC(C(=O)O)C(O)C(O)C1O)c1cc(OC)c2c(c1)OCO2` (stereo not shown) [1′-Hydroxymyristicin glucuronide, 1′-hydroxymyristicin glucuronide] the Vmax [7, 12] was 8.6 ± 2.0 nmol min^−1 (mg microsomal or S9 protein)^−1, the “In vitro catalytic efficiency” value [7, 13] was 10.287 μl min^−1 (mg microsomal or S9 protein)^−1 and the “Scaled Vmax, in vivo” value [7, 14] was 73.788 μmol/h/g tissue. For the same compound, the “In vivo catalytic efficiency” value [7, 15] was 0.0883 ml/h/g tissue, the Km at 30 min ([7]; male, Sprague-Dawley, rat, pH 7.4) was 836 ± 336 µM and the Vmax [8, 12] was 0.08 ± 0.03 nmol min^−1 (mg microsomal or S9 protein)^−1. The “In vitro catalytic efficiency” value [8, 13] was 0.025 μl min^−1 (mg microsomal or S9 protein)^−1, the Km at 180 min ([8]; both sexes, human, pH 7.4) was 3140 ± 2430 µM and the “Scaled Vmax, in vivo” value [8, 14] was 0.6864 μmol/h/g tissue. The “In vivo catalytic efficiency” value [8, 15] was 0.0002 ml/h/g tissue.
